# Test results from US8084630B2, “Process for the synthesis of ramelteon and its intermediates” (Teva Pharmaceutical Industries Ltd., priority 2007, dated 2011).
# Where “and” joins values, the source holds several entries; their conditions need not be identical. Identical values can stand only once. Like-named read-outs stand apart in the source and are kept apart here.
# Columns and labels:
# [1] = Electrostatic charge measurement (shaking can, Faraday cup); format: physicochemical; conditions: for Average Charge Density of Batch: 3 samples; for Calculated Charge Density: shaken 90 seconds
# From the text: Electrostatic Charge Measurement
# Equipment and Accessories
# Electrical Shaker—Scientific Industries type Vortex-2 Genie (including specific holder for the shaking cans).
# Electrostatic Charge Meter—Monroe Electronics type Nanocoulomb Meter 253 (Faraday Cup).
# Metal shaking can, S.S. 316, 30×50_mm.
# Plastic shaking can, Perspex, 30×50_mm.
# Description of Test Procedure
# Calibration of the Electrostatic Charge Meter, prior the test according to manufacturer's procedure.
# 6 sample cans were used for each batch.
# The shaking can placed in flat dish, the sample cam was opened and the powder was manually poured into the shaking can.
# The shaking can was hermetically closed by plastic cover and mounted in the holder.
# The electrical shaker was operated for 90 seconds, at maximum rate.
# Subsequent of the shaking period the shaking can was moved into the flat dish, the cover was removed and the powder was manually poured into a glass can within the Faraday-Cup. Some of the powder was transferred by gravitational pouring (90-99%), the rest was transferred by manually push using wooden spatula (with strict adherence to tender motion).
# The Faraday-Cup was closed and the charge reading (in meter display) was recorded. The described test stages were equally conducted on the selected 6 samples of each batch, as follow: 3 powder samples were shaken in metal can, 3 powder samples were shaken in plastic can. All the samples were shaken in each can for the same time period of 90 seconds.
# [2] = Flowability, FT4 Powder Rheometer (REP+VFR); format: physicochemical; conditions: 25 mm blade, 25 ml vessel; for BFE (Basic Flow Energy = Energy Test 7): tipspeed 100 mm/s
# Experimental: Instrument: FT4 Powder Rheometer (Freeman Technology Ltd).
# Methodology: The blade was rotated and simultaneously moved axially into a powder sample whist axial force and rotational forces are measured.
# The 25 mm blade and a 25 ml split borosilicate test vessel were used.
# The Stability and Variable Flow Rate programs were run together by combining the two methods into one program (REP+VFR). The REP+VFR study is a combination of the seven conditioning and test cycles (blade tipspeed is 100 mm/s) at constant speed and the four conditioning and test cycles (blade tipspeed is 100, 70, 40 and 10 mm/s, respectively) with decreasing in blade speed. Definitions of the Flow Parameters:
# Basic Flow Energy (BFE)=Energy Test 7, mJ
# Stability index (SI)=Energy test 7/Energy Test 1
# melatonin MT2 receptor = target: T1, melatonin MT2 receptor (Homo sapiens, UniProt P49286); conditions: cited from earlier work
# T1 sequence (P49286 1-362): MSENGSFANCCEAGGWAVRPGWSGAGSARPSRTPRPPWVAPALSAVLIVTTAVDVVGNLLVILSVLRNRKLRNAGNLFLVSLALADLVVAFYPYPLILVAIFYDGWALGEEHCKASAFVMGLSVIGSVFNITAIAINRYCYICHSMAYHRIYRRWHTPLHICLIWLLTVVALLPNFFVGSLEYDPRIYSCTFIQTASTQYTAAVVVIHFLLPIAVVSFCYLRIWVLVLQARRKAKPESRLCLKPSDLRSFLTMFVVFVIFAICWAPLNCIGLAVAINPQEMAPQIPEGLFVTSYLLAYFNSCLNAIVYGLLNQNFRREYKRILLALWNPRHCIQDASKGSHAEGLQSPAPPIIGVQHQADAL
# melatonin MT1 receptor = melatonin MT1 receptor (Homo sapiens, UniProt P48039); conditions: cited from earlier work
# [3] = cited from earlier work
# MT3 receptor = target: T2, MT3 receptor (Homo sapiens, UniProt P16083); conditions: cited from earlier work
# T2 sequence (P16083 1-231): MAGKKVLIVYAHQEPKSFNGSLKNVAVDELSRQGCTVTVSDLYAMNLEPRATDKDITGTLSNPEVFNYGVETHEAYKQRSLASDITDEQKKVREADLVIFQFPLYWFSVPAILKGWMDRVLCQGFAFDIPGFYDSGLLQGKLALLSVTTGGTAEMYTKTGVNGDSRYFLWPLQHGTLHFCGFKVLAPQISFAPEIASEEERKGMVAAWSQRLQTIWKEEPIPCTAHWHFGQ
# Sequence of melatonin MT1 receptor (P48039 whole entry): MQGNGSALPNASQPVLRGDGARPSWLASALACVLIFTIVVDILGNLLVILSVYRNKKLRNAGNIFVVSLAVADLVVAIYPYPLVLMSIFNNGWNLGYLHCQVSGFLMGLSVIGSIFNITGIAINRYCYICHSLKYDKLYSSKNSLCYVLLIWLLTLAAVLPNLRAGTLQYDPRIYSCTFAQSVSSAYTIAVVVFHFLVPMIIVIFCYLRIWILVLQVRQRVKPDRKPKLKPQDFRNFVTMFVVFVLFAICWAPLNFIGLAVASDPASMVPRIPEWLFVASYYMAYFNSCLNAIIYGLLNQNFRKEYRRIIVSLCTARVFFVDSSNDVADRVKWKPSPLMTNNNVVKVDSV
Structure (SMILES),Average Charge Density of Batch ([1]; metal can) [nC/gr],Average Charge Density of Batch ([1]; plastic can) [nC/gr],Calculated Charge Density ([1]; plastic can),BFE (Basic Flow Energy = Energy Test 7) ([2]; listed as Sample from Toluene) [mJ],SI (Stability index = Energy test 7/Energy Test 1) ([2]; listed as Sample from Toluene),affinity for melatonin MT2 receptor (melatonin MT2 receptor),affinity for melatonin MT1 receptor (melatonin MT1 receptor),solubility ([3]; 1-octanol),solubility ([3]; DMSO),solubility ([3]; aqueous buffer),solubility ([3]; ethanol),solubility ([3]; methanol),solubility ([3]; water),selectivity over the MT3 receptor (MT3 receptor),average charge density relative to sample obtained from Toluene ([1]; metal can),Calculated Charge Density ([1]; metal can),average charge density relative to sample obtained from Toluene ([1]; plastic can),SI (Stability index = Energy test 7/Energy Test 1) [2],BFE (Basic Flow Energy = Energy Test 7) ([2]; listed as Sample from Ethylacetate) [mJ]
"CCC(=O)NCC[C@@H]1CCc2ccc3c(c21)CCO3 [Toluene, ramelteon]",0.82,0.72,0.85 nC/gr and 0.6 nC/gr and 0.7 nC/gr,92.5,1.02,,,,,,,,,,,,,,
"CCC(=O)NCC[C@@H]1CCc2ccc3c(c21)CCO3 [Ramelteon, (S)—N-[2-(1,6,7,8-tetrahydro-2H-indeno-[5,4-b]furan-8-yl)ethyl]propionamide]",,,,,,high affinity,high affinity,freely soluble,freely soluble,highly soluble,freely soluble,freely soluble,highly soluble,selectivity over the MT3 receptor,,,,,
"CCC(=O)NCC[C@@H]1CCc2ccc3c(c21)CCO3 [Ethyl Acetate, ramelteon]",9.63,10.82,10.1 nC/gr and 14.05 nC/gr and 8.3 nC/gr,,,,,,,,,,,,about 12 times,8.8 nC/gr and 10.1 nC/gr and 10.0 nC/gr,about 15 times,0.622,181
